Measured values: BindingDB's records for doi:10.1021/jm00117a017 (Merck Sharp and Dohme Research Laboratories, 1988)

Molecular target: D-alanine--D-alanine ligase (Enterococcus faecalis)
Assay: Antibacterial activity against D-alanyl-D-alanine ligase from Streptococcus faecalis (ATCC 8043)

Point of comparison: `CC(N)P(=O)(O)CC(Cc1ccccc1)C(=O)O` (stereo not given), IC50 50 µM. Against it:
- CC(=N)[PH](O)(O)CC(CC(C)C)C(=O)O (stereo not given) [2-[(1-Amino-ethyl)-hydroxy-phosphinoylmethyl]-4-methyl-pentanoic acid;hydrate] — 1.7-fold lower, 30 µM
- CCCC(CP(=O)(O)C(C)N)C(=O)O (stereo not given) [2-[(1-Amino-ethyl)-hydroxy-phosphinoylmethyl]-pentanoic acid;hydrate] — 2.5-fold lower, 20 µM
- CC(N)P(=O)(O)CC(CCCc1ccccc1)C(=O)O (stereo not given) [2-[(1-Amino-ethyl)-hydroxy-phosphinoylmethyl]-5-phenyl-pentanoic acid;hydrate] — the same, 50 µM
- C[C@H](N)P(=O)(O)O [1-Ammonium-ethanephosphonic acid anion] — 19-fold higher, 930 µM
- CCC(C[PH](O)(O)C(C)=N)C(=O)O (stereo not given) [2-[(1-Amino-ethyl)-hydroxy-phosphinoylmethyl]-butyric acid;hydrate] — within 1.5-fold, 45 µM
- CC(=N)[PH](O)(O)CC(CCc1ccccc1)C(=O)O (stereo not given) [2-[(1-Amino-ethyl)-hydroxy-phosphinoylmethyl]-4-phenyl-butyric acid;hydrate] — within 1.5-fold, 40 µM
- CCCCC(C[PH](O)(O)C(=N)CC)C(=O)O (stereo not given) [2-[(1-Amino-propyl)-hydroxy-phosphinoylmethyl]-hexanoic acid;hydrate] — 3.1-fold higher, 155 µM
- CCCCCCCC(C[PH](O)(O)C(C)=N)C(=O)O (stereo not given) — 4-fold higher, 200 µM

Molecular target: not listed separately
Assay: as above

In the case of `CCCCCCCC(C[PH](O)(O)C(C)=N)C(=O)O` (stereo not given), the IC50 is reported as 12.5 µM.
